In this test the test system is goblet cells. Kind of test: Goblet cell density in eye tissue of scopolamine-treated rats (dry eye model), PAS-stained thin sections, blinded grader ratings. The format is in vivo, Sprague-Dawley male rats. The procedure:
Sprague-Dawley male rats (7 weeks old, average weight=444 g) were treated with subcutaneous (SC) scopolamine hydrobromide in normal saline (n=30, 25 mg/kg injected 3× per day) or nothing (n=4). Scopolamine treated animals received either (a) 50 mM meglumine in the drinking water (n=10), (b) a 3× daily eyemist containing 2% by weight of meglumine hydrochloride (n=10) or (c) a 3× daily eyemist of normal saline (n=10). Treatment was for 4.5 weeks. One animal receiving scopolamine and the meglumine eyemist died just prior to the end of the study, and the eye tissues were not analyzed. Animals were euthanized and the eye orbit and surrounding tissue from both eyes were removed and placed in formalin. Tissues were embedded in paraffin, thin sections prepared, and stained with periodic acid Schiff to more easily visualize the goblet cells.
Animals not treated with scopolamine or with scopolamine and a saline eyemist had the lowest levels of goblet cells. […] The difference in goblet cell density between the untreated animals and those treated with oral meglumine was significant for one grader (p=0.04) and approached significance for the other (p=0.07). The meglumine eye mist referred to in Table 1 was obtained from Piedmont Chemical Industries (High Point, N.C.).

Structures are written as SMILES.

In the case of `CNC[C@H](O)[C@@H](O)[C@H](O)[C@H](O)CO` [oral meg, meglumine], the “extent of regions containing goblet cells (FIG. 1)” value (scopolamine-dosed rats, oral meglumine versus saline eyemist) was “more extensive regions containing goblet cells”. For the same compound, for the setting “scopolamine-treated rats, 50 mM meglumine in the drinking water, 4.5 weeks”, the “levels of goblet cells compared with the other groups (in words)” value is on record as “highest levels of goblet cells”.

(Values after US9861593B2, “Method for treating or preventing dry eye disorders using alkylamino-polyhydroxyalkanes” (Dynamis Pharmaceuticals, Inc., priority 2008, dated 2018).)
